Assay results: patent US20260125389A1, “MEMBRANE-ASSOCIATED TYROSINE AND THREONINE KINASE INHIBITOR AND USE THEREOF” (HAINAN SIMCERE ZAIMING PHARMACEUTICAL CO., LTD., priority 2022, published 2026)

The compounds below were run against T1, PKMYT1 (Homo sapiens, UniProt Q99640) (assay: Inhibition assay for PKMYT1 enzyme activity (ADP-Glo)). Details: MYT1 2 ng/μL, ATP 25 μM, substrate CDK1 20 ng/μL, 40 min reaction, read-out: IC50 values of compounds for PKMYT1 inhibition activity.
T1 sequence (Q99640 1-499): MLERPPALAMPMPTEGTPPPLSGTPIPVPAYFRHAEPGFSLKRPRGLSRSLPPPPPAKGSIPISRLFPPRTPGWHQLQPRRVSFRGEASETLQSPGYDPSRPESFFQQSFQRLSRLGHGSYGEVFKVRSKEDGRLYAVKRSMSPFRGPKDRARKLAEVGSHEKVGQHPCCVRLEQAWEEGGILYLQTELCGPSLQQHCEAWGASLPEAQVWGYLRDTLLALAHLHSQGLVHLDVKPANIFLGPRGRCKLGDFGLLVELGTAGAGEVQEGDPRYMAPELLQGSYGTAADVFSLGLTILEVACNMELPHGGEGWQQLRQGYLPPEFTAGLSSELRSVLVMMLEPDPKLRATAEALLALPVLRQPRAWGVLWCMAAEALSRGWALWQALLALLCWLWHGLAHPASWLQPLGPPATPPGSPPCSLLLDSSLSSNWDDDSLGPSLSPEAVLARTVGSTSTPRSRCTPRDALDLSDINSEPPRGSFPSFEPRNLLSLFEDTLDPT
Type: biochemical
Procedure: Experimental principle: After co-incubation of PKMYT1 with the compound, the substrate CDK1 was phosphorylated under the action of ATP. ADP produced by the reaction was quantified using an ADP-Glo™ assay kit from Promega to reflect the enzyme activity.
Experimental method: Using the Echo liquid handler, the test compound was diluted to different concentrations in dimethyl sulfoxide (DMSO) and transferred to a 384-well plate. Thus, the final concentration of the compound in the reaction system started at 1 μM and was subjected to a 3-fold serial dilution, with the final DMSO concentration maintained at 1%. 50 nL/well of the test compound solution was added. 3 μL/well of MYT1 diluted with Kinase Dilution Buffer was then added. […] After incubation for 30 min, the fluorescence signal values were measured using an Envision microplate reader.
The % compound inhibition was calculated and fitted using XLfit software to obtain the IC50 value of the compound. […]
Herein, the experimental well, blank well, and DMSO group refer to the fluorescence signal values recorded from the experimental group, blank group, and DMSO group, respectively.
The inhibitory activity of the compounds of the present application on PKMYT1 was determined by the above assay, and the IC50 values obtained are as shown in Table 1.

| IC50 [nM] | SMILES |
| --- | --- |
| 8.8 | Cc1ccc(O)c(C)c1-n1c(N)c2c3c(ncnc31)-c1ccccc1NC2=O [Compound 1, 5-amino-4-(3-hydroxy-2,6-dimethylphenyl)-4,7-dihydro-6H-1,3,4,7-tetraazadibenzo[cd,f]azulen-6-one] |
| 5.7 | Cc1nc2c3c(c(N)n(-c4c(C)ccc(O)c4C)c3n1)C(=O)Nc1ccccc1-2 [Compound 2, 5-amino-4-(3-hydroxy-2,6-dimethylphenyl)-2-methyl-4,7-dihydro-6H-1,3,4,7-tetraazadibenzo[cd,f]azulen-6-one] |

These compounds were tested on HCC1569 cells (assay: Inhibition of tumor cell proliferation (CTG, HCC1569)). Details: Homo sapiens, 168 h, 7 days incubation, CTG readout, read-out: IC50 of compounds for inhibition of HCC1569 cell growth.
Type: cell-based
Procedure: Experimental principle: The compound was incubated with tumor cells for 7 days, and ATP in viable cells was quantified using the CTG kit from Promega to evaluate the effect of the compound on tumor cell proliferation.
Experimental method: The cultured cells were resuspended after being rinsed with PBS (for adherent cells) and digested with 0.25% Trypsin-EDTA, followed by cell counting to determine cell density and viability. 3000 HCC1569 cells/well were diluted with RPMI Medium 1640 containing 10% FBS, added to a 96-well plate (90 μL/well), and cultured in an incubator at 37° C. with 5% CO2 for 24 h. The test compound was diluted to different concentrations in dimethyl sulfoxide (DMSO) and added to a 96-well plate. Thus, the final concentration of the compound in the reaction system started at 25 μM and was subjected to a 4-fold serial dilution, with the final DMSO concentration maintained at 0.25%. The compound and cells were further incubated at 37° C. with 5% CO2 for 7 days. 50 μL/well of CTG was then added to measure the inhibitory effect of the compound on tumor cell growth, and the inhibition rate and half-maximal inhibitory concentration (IC50) were calculated.
The % compound inhibition was calculated and fitted using XLfit software to obtain the IC50 of the compound.
Blank wells and DMSO wells were set up. The blank well contained 100 μL of RPMI Medium 1640 with 10% FBS, where the inhibition rate of the compound on tumor cell growth was considered 100%. The DMSO well contained 0.25% DMSO added to the cell well, where the inhibition rate of the compound on tumor cell growth was considered 0%.

| IC50 [nM] | SMILES |
| --- | --- |
| 9.2 | Cc1nc2c3c(c(N)n(-c4c(C)ccc(O)c4C)c3n1)C(=O)Nc1c-2cnn1C [Compound 12, 5-amino-4-(3-hydroxy-2,6-dimethylphenyl)-2,8-dimethyl-7,8-dihydro-1,3,4,7,8,9-hexaazabenzo[cd]cyclopenta[f]azulen-6(4H)-one] |
| 297 | Cc1nc2c3c(c(N)n(-c4c(C)ccc(O)c4C)c3n1)C(=O)NCc1nc(OC3CC3)ccc1-2 [Compound 31, 2-amino-7-cyclopropoxy-1-(3-hydroxy-2,6-dimethylphenyl)-11-methyl-4,5-dihydro-1,4,6,10,12-pentaazabenzo[4,5]cyclooctatetraeno[1,2,3-cd]inden-3(1H)-one] |
| 92 | Cc1nc2c3c(c(N)n(-c4c(C)ccc(O)c4C)c3n1)C(=O)Nc1scnc1-2 [Compound 38, 5-amino-4-(3-hydroxy-2,6-dimethylphenyl)-2-methyl-4,7-dihydro-6H-8-thia-1,3,4,7,10-pentaazabenzo[cd]cyclopenta[f]azulen-6-one] |
| 562 | Cc1nc2c3c(c(N)n(-c4c(C)ccc(O)c4C)c3n1)C(=O)NCc1nc(C(F)(F)F)ccc1-2 [Compound 29, 2-amino-1-(3-hydroxy-2,6-dimethylphenyl)-11-methyl-7-(trifluoromethyl)-4,5-dihydro-1,4,6,10,12-pentaazabenzo[4,5]cyclooctatetraeno[1,2,3-cd]inden-3(1H)-one] |
| 9.1 | Cc1nc2c3c(c(N)n(-c4c(C)ccc(O)c4C)c3n1)C(=O)Nc1c-2c(C)nn1C [Compound 34, 2-amino-1-(3-hydroxy-2,6-dimethylphenyl)-5,7,9-trimethyl-4,5-dihydro-1,4,5,6,8,10-hexaazabenzo[cd]cyclopenta[f]azulen-3(1H)-one] |
| 49 | Cc1nc2c3c(c(N)n(-c4c(C)ccc(O)c4C)c3n1)C(=O)Nc1c-2cnn1C1CC1 [Compound 33, 5-amino-8-cyclopropyl-4-(3-hydroxy-2,6-dimethylphenyl)-2-methyl-7,8-dihydro-1,3,4,7,8,9-hexaazabenzo[cd]cyclopenta[f]azulen-6(4H)-one] |
| 42 | Cc1ccc(O)c(C)c1-n1c(N)c2c3c(ncnc31)-c1ccccc1NC2=O [Compound 1, 5-amino-4-(3-hydroxy-2,6-dimethylphenyl)-4,7-dihydro-6H-1,3,4,7-tetraazadibenzo[cd,f]azulen-6-one] |
| 40.5 | CCc1nccc2c1CNC(=O)c1c(N)n(-c3c(C)ccc(O)c3C)c3nc(C)nc-2c13 [Compound 35, 2-amino-6-ethyl-1-(3-hydroxy-2,6-dimethylphenyl)-11-methyl-4,5-dihydro-1,4,7,10,12-pentaazabenzo[4,5]cyclooctatetraeno[1,2,3-cd]inden-3(1H)-one] |
| 22 | Cc1nc2c3c(c(N)n(-c4c(C)ccc(O)c4C)c3n1)C(=O)Nc1ccccc1-2 [Compound 2, 5-amino-4-(3-hydroxy-2,6-dimethylphenyl)-2-methyl-4,7-dihydro-6H-1,3,4,7-tetraazadibenzo[cd,f]azulen-6-one] |
| 768 | Cc1nc2c3c(c(N)n(-c4c(C)ccc(O)c4C)c3n1)C(=O)NCc1nn(C)cc1-2 [Compound 8, 2-amino-1-(3-hydroxy-2,6-dimethylphenyl)-7,10-dimethyl-1,4,5,7-tetrahydro-3H-1,4,6,7,9,11-hexaazacyclopenta[4,5]cyclooctatetraeno[1,2,3-cd]inden-3-one] |
| 291 | COCCn1ncc2c1NC(=O)c1c(N)n(-c3c(C)ccc(O)c3C)c3nc(C)nc-2c13 [Compound 43, 5-amino-4-(3-hydroxy-2,6-dimethylphenyl)-8-(2-methoxyethyl)-2-methyl-7,8-dihydro-1,3,4,7,8,9-hexaazabenzo[cd]cyclopenta[f]azulen-6(4H)-one] |
| 194 | Cc1nc2c3c(c(N)n(-c4c(C)ccc(O)c4C)c3n1)C(=O)NCc1c-2ccnc1C#N [Compound 45, 2-amino-1-(3-hydroxy-2,6-dimethylphenyl)-11-methyl-3-oxo-1,3,4,5-tetrahydro-1,4,7,10,12-pentaazabenzo[4,5]cyclooctatetraeno[1,2,3-cd]indene-6-carbonitrile] |
